≈ marks a conversion by molar mass, not a printed value.

By IC90 is commonly meant the point of the concentration-response curve where the effect stands at 90%.

The test system of assay [1] is Staphylococcus aureus (ATCC29213). Briefly: In-vitro anti-bacterial activity, microtitre plate assay, IC90 determination (non-mycobacterial strains). Type of assay: cell-based. As to conditions: 90% inhibitory concentration for bacterial growth, resazurin fluorescence; for IC90 STA B29213: 24 hours; for IC90: Staphylococcus aureus, ATCC29213, 24 h, read-out: IC90 STA B29213. Put shortly: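 Inoculum of about 100 TCID50 (10–60 CFU/well) in Mueller-Hinton broth, serial five-fold compound dilutions, 24 h at 37 °C in air. Growth read by resazurin fluorescence (ex 530/em 590 nm); IC90 in μg/ml as 90% growth inhibition.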
For orientation: Resazurin is reduced to fluorescent resorufin, in cell work by metabolically active cells.

For assay [2], the system named is Mycobacterium smegmatis (ATCC607). Briefly: In-vitro anti-bacterial activity against strain M. Smegmatis ATCC607. Type of assay: cell-based. The conditions noted are these: 90% inhibitory concentration for bacterial growth, Alamar Blue fluorescence; for IC90 MSM 607: 48 hours. The method in brief: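 Serial five-fold compound dilutions in BSA-supplemented wells, inoculated with ~250 CFU/well in Mueller-Hinton broth, incubated 48 h at 37 °C, 5% CO2. Growth read by Alamar Blue fluorescence (ex 530/em 590 nm); IC90 in μg/ml.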

Turning to `Cc1cc(F)ccc1C1CC(O)(C(c2cccc(Cl)c2)c2cc3cc(S(C)(=O)=O)ccc3[nH]c2=O)CCN1` (centres unmarked) [Compound 272], in assay [1], the “IC90 STA B29213” value was greater than 14.78 µg/mL. Further, the “IC90 MSM 607” value in assay [2] is greater than 14.78 µg/mL.

For the compound `COc1nc2ccc(SC)cc2cc1C(c1ccc(Cl)cc1)C1(O)CCNC(c2ccc(F)cc2C)C1` (centres unmarked) [Compound 274], the “IC90 STA B29213” value in assay [1] stood at 1.91 µg/mL (≈ 3.56 µM). Also, in assay [2], the “IC90 MSM 607” value was determined as 1.07 µg/mL (≈ 1.99 µM).

In the case of `COc1nc2ccc(SC)cc2cc1C(c1ccc(Cl)cc1)C1(O)CCNC(c2ccc(F)cc2C)C1` (centres unmarked) [Compound 276], the “IC90 STA B29213” value in assay [1] is 1.70 µg/mL (≈ 3.17 µM). Further, the “IC90 MSM 607” value in assay [2] was 1.07 µg/mL (≈ 1.99 µM).

For the compound `CSc1ccc2[nH]c(=O)c(C(c3ccc(Cl)cc3)C3(O)CCNC(c4ccc(F)cc4C)C3)cc2c1` (centres unmarked) [Compound 277], in assay [1], the “IC90 STA B29213” value was determined as 1.76 µg/mL (≈ 3.36 µM). Also, in assay [2], the “IC90 MSM 607” value was 1.40 µg/mL (≈ 2.68 µM).

As to `CSc1ccc2[nH]c(=O)c(C(c3ccc(Cl)cc3)C3(O)CCNC(c4ccc(F)cc4C)C3)cc2c1` (centres unmarked) [Compound 278], the “IC90 STA B29213” value in assay [1] was 1.77 µg/mL (≈ 3.38 µM). Besides, the “IC90 MSM 607” value in assay [2] worked out at 1.40 µg/mL (≈ 2.68 µM).

Turning to `Cc1cc(F)ccc1C1CC(O)(C(c2ccccc2)c2cc3cc(Br)ccc3[nH]c2=O)CCN1` (centres unmarked) [Compound 279], the “IC90 STA B29213” value in assay [1] stood at 7.00 µg/mL (≈ 13.4 µM). The “IC90 MSM 607” value in assay [2] stood at 7.00 µg/mL (≈ 13.4 µM).

As to `Cc1cc(F)ccc1C1CC(O)(C(c2ccccc2)c2cc3cc(Br)ccc3[nH]c2=O)CCN1` (centres unmarked) [Compound 280], in assay [1], the “IC90 STA B29213” value is 1.75 µg/mL (≈ 3.36 µM). Moreover, in assay [2], the “IC90 MSM 607” value is 1.10 µg/mL (≈ 2.11 µM).

Regarding `CSc1ccc2[nH]c(=O)c(C(c3ccc(Cl)cc3)C3(O)CCNC(Cc4ccc(F)cc4)C3)cc2c1` (centres unmarked) [Compound 281], the “IC90 STA B29213” value in assay [1] was 3.53 µg/mL (≈ 6.75 µM). Further, in assay [2] (Mycolicibacterium smegmatis, ATCC607, 48 h, read-out: IC90 MSM 607), the IC90 was 7.03 µg/mL (≈ 13.4 µM).

With `CSc1ccc2[nH]c(=O)c(C(c3ccc(Cl)cc3)C3(O)CCNC(Cc4ccc(F)cc4)C3)cc2c1` (centres unmarked) [Compound 282], in assay [1], the “IC90 STA B29213” value worked out at 7.02 µg/mL (≈ 13.4 µM). Further, in assay [2], the “IC90 MSM 607” value amounted to 7.02 µg/mL (≈ 13.4 µM).

For `COc1nc2ccc(SC)cc2cc1C(c1ccc(Cl)cc1)C1(O)CCNCC1Cc1cccc(F)c1` (centres unmarked) [Compound 284], in assay [1], the “IC90 STA B29213” value is 4.25 µg/mL (≈ 7.91 µM). The “IC90 MSM 607” value in assay [2] was determined as 3.38 µg/mL (≈ 6.29 µM).

For `COc1nc2ccc(SC)cc2cc1C(c1ccc(Cl)cc1)C1(O)CCNCC1Cc1cccc(F)c1` (centres unmarked) [Compound 285], the “IC90 STA B29213” value in assay [1] is greater than 13.49 µg/mL. Moreover, in assay [2], the “IC90 MSM 607” value is greater than 13.49 µg/mL.

As for `COc1nc2ccc(SC)cc2cc1C(c1ccc(Cl)cc1)C1(O)CCNCC1Cc1cccc(F)c1` (centres unmarked) [Compound 286], the “IC90 STA B29213” value in assay [1] amounted to 4.22 µg/mL (≈ 7.86 µM). The “IC90 MSM 607” value in assay [2] stood at 2.12 µg/mL (≈ 3.95 µM).

Take `COc1nc2ccc(SC)cc2cc1C(c1ccc(Cl)cc1)C1(O)CCNC(CC2CCCCC2)C1` (centres unmarked) [Compound 288]: the “IC90 STA B29213” value in assay [1] came out at 4.29 µg/mL (≈ 8.17 µM). Also, the “IC90 MSM 607” value in assay [2] was determined as 3.41 µg/mL (≈ 6.49 µM).

Take `COc1nc2ccc(SC)cc2cc1C(c1ccc(Cl)cc1)C1(O)CCNC(CC2CCCCC2)C1` (centres unmarked) [Compound 289]: the “IC90 STA B29213” value in assay [1] was found to be 4.23 µg/mL (≈ 8.05 µM). Also, in assay [2], the “IC90 MSM 607” value turned out to be 3.36 µg/mL (≈ 6.4 µM).

For `COc1nc2ccc(SC)cc2cc1C(c1ccc(Cl)cc1)C1(O)CCNC(CC2CCCCC2)C1` (centres unmarked) [Compound 290], the “IC90 STA B29213” value in assay [1] was found to be 2.35 µg/mL (≈ 4.47 µM). Further, the “IC90 MSM 607” value in assay [2] amounted to 2.63 µg/mL (≈ 5.01 µM).

For the compound `COc1nc2ccc(S(C)(=O)=O)cc2cc1C(c1ccc(Cl)cc1)C1(O)CCNCC1Cc1cccc(F)c1` (centres unmarked) [Compound 292], in assay [1], the “IC90 STA B29213” value amounted to 7.16 µg/mL (≈ 12.6 µM). Further, the “IC90 MSM 607” value in assay [2] was determined as 5.69 µg/mL (≈ 10 µM).

Take `COc1nc2ccc(S(C)(=O)=O)cc2cc1C(c1ccc(Cl)cc1)C1(O)CCNCC1Cc1cccc(F)c1` (centres unmarked) [Compound 293]: the “IC90 STA B29213” value in assay [1] is 7.16 µg/mL (≈ 12.6 µM). For the same compound, the “IC90 MSM 607” value in assay [2] is 7.16 µg/mL (≈ 12.6 µM).

For `COc1nc2ccc(S(C)(=O)=O)cc2cc1C(c1ccc(Cl)cc1)C1(O)CCNCC1Cc1cccc(F)c1` (centres unmarked) [Compound 294], the “IC90 STA B29213” value in assay [1] is 11.36 µg/mL (≈ 20 µM). The “IC90 MSM 607” value in assay [2] was 14.30 µg/mL (≈ 25.1 µM).

In the case of `CSc1ccc2[nH]c(=O)c(C(c3ccc(Cl)cc3)C3(O)CCNC(CC4CCCCC4)C3)cc2c1` (centres unmarked) [Compound 295], in assay [1], the “IC90 STA B29213” value amounted to 3.43 µg/mL (≈ 6.71 µM). Moreover, in assay [2], the “IC90 MSM 607” value came to 3.43 µg/mL (≈ 6.71 µM).

Turning to `CSc1ccc2[nH]c(=O)c(C(c3ccc(Cl)cc3)C3(O)CCNC(CC4CCCCC4)C3)cc2c1` (centres unmarked) [Compound 296], the “IC90 STA B29213” value in assay [1] is 3.43 µg/mL (≈ 6.71 µM). For the same compound, the “IC90 MSM 607” value in assay [2] stood at 6.85 µg/mL (≈ 13.4 µM).

On to `CSc1ccc2[nH]c(=O)c(C(c3ccc(Cl)cc3)C3(O)CCNC(CC4CCCCC4)C3)cc2c1` (centres unmarked) [Compound 297], for which the “IC90 STA B29213” value in assay [1] was found to be 3.43 µg/mL (≈ 6.71 µM). In assay [2], the “IC90 MSM 607” value turned out to be 13.65 µg/mL (≈ 26.7 µM).

`CSc1ccc2[nH]c(=O)c(C(c3ccc(Cl)cc3)C3(O)CCNC(CC4CCCCC4)C3)cc2c1` (centres unmarked) [Compound 298]: the “IC90 STA B29213” value in assay [1] came to 6.88 µg/mL (≈ 13.5 µM). For the same compound, in assay [2], the “IC90 MSM 607” value came out at 6.88 µg/mL (≈ 13.5 µM).

`Cc1cc(F)ccc1C1CC(O)(C(c2ccc(Cl)cc2)c2cc3cc(Cl)ccc3[nH]c2=O)CCN1` (centres unmarked) [Compound 303]: the IC90 in assay [1] came to 6.88 µg/mL (≈ 13.5 µM). Further, the “IC90 MSM 607” value in assay [2] is 5.47 µg/mL (≈ 10.7 µM).

As for `Cc1cc(F)ccc1C1CC(O)(C(c2ccc(Cl)cc2)c2cc3cc(Cl)ccc3[nH]c2=O)CCN1` (centres unmarked) [Compound 304], the “IC90 STA B29213” value in assay [1] worked out at 3.45 µg/mL (≈ 6.75 µM). Also, in assay [2], the “IC90 MSM 607” value came out at 1.73 µg/mL (≈ 3.38 µM).

For the compound `COc1nc2ccc(S(C)(=O)=O)cc2cc1C(c1ccc(Cl)cc1)C1(O)CCNC(Cc2ccc(F)cc2F)C1` (centres unmarked) [Compound 305], in assay [1], the “IC90 STA B29213” value amounted to 18.76 µg/mL (≈ 32 µM). Moreover, in assay [2], the “IC90 MSM 607” value is 18.76 µg/mL (≈ 32 µM).

Take `COc1nc2ccc(S(C)(=O)=O)cc2cc1C(c1ccc(Cl)cc1)C1(O)CCNC(Cc2ccc(F)cc2F)C1` (centres unmarked) [Compound 306]: the “IC90 STA B29213” value in assay [1] came out at 4.70 µg/mL (≈ 8.01 µM). Besides, the “IC90 MSM 607” value in assay [2] stood at 4.70 µg/mL (≈ 8.01 µM).

With `CS(=O)(=O)c1ccc2[nH]c(=O)c(C(c3cccc(Cl)c3)C3(O)CCNC(Cc4ccc(F)cc4F)C3)cc2c1` (centres unmarked) [Compound 307], the “IC90 STA B29213” value in assay [1] is greater than 15.12 µg/mL. For the same compound, the “IC90 MSM 607” value in assay [2] is greater than 15.12 µg/mL.

Take `CS(=O)(=O)c1ccc2[nH]c(=O)c(C(c3cccc(Cl)c3)C3(O)CCNC(Cc4ccc(F)cc4F)C3)cc2c1` (centres unmarked) [Compound 308]: the “IC90 STA B29213” value in assay [1] was 7.65 µg/mL (≈ 13.3 µM). Moreover, the “IC90 MSM 607” value in assay [2] was determined as 6.08 µg/mL (≈ 10.6 µM).

Take `CSc1ccc2[nH]c(=O)c(C(c3cccc(Cl)c3)C3(O)CCNC(Cc4ccc(F)cc4F)C3)cc2c1` (centres unmarked) [Compound 309]: the “IC90 STA B29213” value in assay [1] came out at 14.50 µg/mL (≈ 26.8 µM). Moreover, the “IC90 MSM 607” value in assay [2] was 11.52 µg/mL (≈ 21.3 µM).

For `CSc1ccc2[nH]c(=O)c(C(c3cccc(Cl)c3)C3(O)CCNC(Cc4ccc(F)cc4F)C3)cc2c1` (centres unmarked) [Compound 310], the “IC90 STA B29213” value in assay [1] is 3.62 µg/mL (≈ 6.69 µM). Also, the “IC90 MSM 607” value in assay [2] is 3.62 µg/mL (≈ 6.69 µM).

As for `CSc1ccc2[nH]c(=O)c(C(c3cccc(Cl)c3)C3(O)CCNC(Cc4ccc(F)cc4F)C3)cc2c1` (centres unmarked) [Compound 311], the “IC90 STA B29213” value in assay [1] was 7.24 µg/mL (≈ 13.4 µM). In assay [2], the “IC90 MSM 607” value was 3.63 µg/mL (≈ 6.71 µM).

Take `CSc1ccc2[nH]c(=O)c(C(c3cccc(Cl)c3)C3(O)CCNC(Cc4ccc(F)cc4F)C3)cc2c1` (centres unmarked) [Compound 312]: the “IC90 STA B29213” value in assay [1] came out at 3.62 µg/mL (≈ 6.69 µM). Moreover, in assay [2], the “IC90 MSM 607” value worked out at 3.62 µg/mL (≈ 6.69 µM).

`COc1nc2ccc(Br)cc2cc1C(c1ccc(Cl)cc1)C1(O)CCNC(Cc2ccc(F)cc2F)C1` (centres unmarked) [Compound 313]: the IC90 in assay [1] turned out to be 2.4 µg/mL (≈ 4.08 µM). Further, in assay [2], the “IC90 MSM 607” value was 1.91 µg/mL (≈ 3.25 µM).

`O=c1[nH]c2ccc(Br)cc2cc1C(c1ccc(Cl)cc1)C1(O)CCNC(Cc2ccc(F)cc2F)C1` (centres unmarked) [Compound 314]: the “IC90 STA B29213” value in assay [1] was 3.05 µg/mL (≈ 5.31 µM). In addition, in assay [2], the “IC90 MSM 607” value was found to be 4.83 µg/mL (≈ 8.42 µM).

(Values after patent US9617244B2, “Antibacterial quinoline derivatives” (JANSSEN PHARMACEUTICA NV, priority 2012, dated 2017).)
